# Results as given in paper PMC8080589, “Modulation of αVβ6 integrin in osteoarthritis-related synovitis and the interaction with VTN(381–397 a.a.) competing for TGF-β1 activation” (Experimental & Molecular Medicine, 2021).
# Ends that are not written are not given here.
# B1: S100A9: danger-associated molecular pattern (protein, UniProt P06702 1-114, looked up)
# Protein S100-A9: MTCKMSQLERNIETIINTFHQYSVKLGHPDTLNQGEFKELVRKDLQNFLKKENKNEKVIEHIMEDLDTNADKQLSFEEFIMLMARLTWASHEKMHEGDEGPGHHHKPGLGEGTP
# B2: HMGB1: danger-associated molecular pattern (protein, UniProt P09429 1-215, looked up)
# High mobility group protein B1: MGKGDPKKPRGKMSSYAFFVQTCREEHKKKHPDASVNFSEFSKKCSERWKTMSAKEKGKFEDMAKADKARYEREMKTYIPPKGETKKKFKDPNAPKRPPSAFFLFCSEYRPKIKGEHPGLSIGDVAKKLGEMWNNTAADDKQPYEKKAAKLKEKYEKDIAAYRAKGKPDAAKKGVVKAEKSKKKKEEEEDEEDEEDEEEEEDEEDEDEEEDDDDE
# Key:
# [1] = test system: αV integrin subunit expression, human fibroblast-like synoviocytes (FLSs); experiment: αV subunit expression in FLSs by western blot after stimulation; format: cell-based; settings: OA FLSs, western blot normalized to GAPDH; IL-1β, IL-6, TNF-α 10 ng/mL 3 or 7 days; prednisolone, dexamethasone 1 μM 3 or 7 days; HMGB1 10, 50, 100 ng/mL 3 days; S100A9, S100A12 100, 200 ng/mL 3 days or 24 h; AGE-BSA 50, 100, 200 μg/mL 3 days or 24 h; menadione 25–50–100 μM 3 h; H2O2 100–200–400 μM 2 h
# Description: (§1) Synovial membranes were obtained from 22 OA patients (14 females, 8 males; mean age 69.8 ± 9.6 years, BMI 30.9 ± 6.8) during knee replacement, and primary synovial fibroblasts were isolated as explained previously. The research ethics committee of CHU de Liege (Belgium) approved the study, and the patient gave informed consent to allow research procedures on samples. Human fibroblast-like synoviocytes (FLSs) were then cultured in DMEM supplemented with 10% FBS, 1% Pen/Strep, and 1% L-glutamine (all from Lonza; Basel, Switzerland) at 37 °C in an atmosphere of 5% CO2. In a plate, 5 × 10^4 FLSs were stimulated with different compounds to analyze the modulation of αVβ6: (i) TGF-β1, TNF-α, IL-1β, or IL-6 were used for 3 or 7 days at a concentration of 10 ng/mL; (ii) among the danger-associated molecular patterns, high-mobility group box 1 (HMGB1) was tested at 10, 50, and 100 ng/mL for 3 days, while S100A9 and S100A12 were tested at 100 and 200 ng/mL for 3 days or 24 h; (iii) advanced glycation end product (AGE-BSA) was tested at 50, 100, and 200 μg/mL for 3 days or 24 h; (iv) prednisolone and dexamethasone were used at 1 μM for 3 or 7 days; and (v) menadione or H2O2 was used to induce oxidative stress at 25–50–100 μM (3 h) and 100–200–400 μM (2 h), respectively, without FBS in the medium.
# (§2) The expression of αV and β6 subunits and α-SMA in FLSs was evaluated by western blot analysis. Cells were scraped from plates and lysed with lysis buffer (25 mM HEPES, 150 mM NaCl, 0.5% Triton, 10% glycerol, 1 mM dithiothreitol) containing phosphatase inhibitors (25 mM β-glycerophosphate, 1 mM Na3VO4, and 1 mM NaF) and complete protease inhibitor mixture (Roche Applied Science; Penzberg, Germany). Total proteins were separated by 10% SDS–PAGE gels (12% for α-SMA) and transferred onto PVDF membranes. The membranes were then incubated with anti-αV polyclonal antibody (1:250 dilution) (Cell Signaling Technology; Boston, MA, USA), anti-β6 polyclonal antibody (1:1000 dilution) (Abcam; Cambridge, UK) or anti-α-SMA monoclonal antibody (Agilent; Santa Clara, CA, USA; 1:1000 dilution). HRP-conjugated anti-rabbit antibody (1:1000 dilution) (Cell Signaling Technology) was used as the secondary antibody. Immunoblots were developed using the ECL chemiluminescent detection system. Rabbit anti-glyceraldehyde 3-phosphate dehydrogenase (GAPDH) (Merck) or rabbit anti-heat shock protein 90 (Hsp90; Santa Cruz) was used as loading controls at a dilution of 1:10,000 or 1:200, respectively. Values of optical intensity were normalized to GAPDH or Hsp90 levels. Data were analyzed by paired Wilcoxon test; a p-value < 0.05 was considered statistically significant. Statistical analysis was performed with GraphPad Prism 6 software (San Diego, CA, USA).
# Supplementary information SI3.
# Variation of αV and β6 expression in human fibroblast-like synoviocytes after stimulation with different compounds. Time of stimulation and employed substances are indicated. The graphs represent αV and β6 expression before and after stimulation, obtained by western blot. Values were normalized to GAPDH and analysed by paired Wilcoxon test.
# IL-1β 10 ng/mL 3 days IL-6 10 ng/mL 3 daysIL-6 Prednisolone 1µM 3 daysPrednisolone […]
# Dexamethasone 1µM 3 days TNF-α 10 ng/mL 3 days TGF-β 10 ng/mL 3 days
# (1 picture or pasted object on this page, not shown here)
# 0.0 control IL-6 0.0 control PRE […]
# [2] = test system: β6 integrin subunit expression, human fibroblast-like synoviocytes (FLSs); experiment: β6 subunit expression in FLSs by western blot after stimulation; format: cell-based; settings: OA FLSs, western blot normalized to GAPDH; IL-1β, IL-6, TNF-α 10 ng/mL 3 or 7 days; prednisolone, dexamethasone 1 μM 3 or 7 days; HMGB1 10, 50, 100 ng/mL 3 days; S100A9, S100A12 100, 200 ng/mL 3 days or 24 h; AGE-BSA 50, 100, 200 μg/mL 3 days or 24 h; menadione 25–50–100 μM 3 h; H2O2 100–200–400 μM 2 h
# Description: as §1, §2
# IL-1β 10 ng/mL 3 days IL-6 10 ng/mL 3 daysIL-6 Prednisolone 1µM 3 daysPrednisolone
# 0.0 control IL-6 0.0 control PRE
# Dexamethasone 1µM 3 daysDexamethasone TNF-α 10 ng/mL 3 days AGE 50 µg/mL 24 h
# [3] = target: T1, integrin αVβ6 (Homo sapiens, UniProt P06756+P18564); experiment: Competition study, 125ISIB-echistatin vs ligands on coated αVβ6; format: binding; settings: competition with 20 nM 125ISIB-echistatin, recombinant human αVβ6 coated at 1.8 µg/mL, IBB pH 7.4 / 0.5% BSA, 2 h room temperature, duplicate wells, gamma counter, five-parameter logistic
# T1 construct: purchased R&D System; Minneapolis, MN, USA
# Description: (§3) A competition study was performed to investigate the interaction of VTN(381–397 a.a.) with five different integrins. Radiolabeled echistatin, a disintegrin known to bind integrin receptors, was used as a tracer for the binding assays. Lyophilized echistatin was provided by Bachem (Bubendorf, Switzerland) and radiolabeled by conjugation with a radioiodinated benzoate (^125ISIB) to the epsilon amino group of lysine side chains. For the five integrins, α5β1, αVβ1, αVβ3, αVβ5, and αVβ6 (R&D System; Minneapolis, MN, USA), a solution at 1.8 µg/mL was prepared with integrin-binding buffer (IBB; 20 mM Tris pH 7.4, 150 mM NaCl, 2 mM CaCl2, 1 mM MgCl2, 1 mM MnCl2). Nunc Maxisorp Module plates were coated overnight at 4 °C with integrin complex at 1.8 µg/mL. After the wells were washed with sample buffer (IBB, 0.5% BSA), blocking solution (IBB, 2% BSA) was added, and the microplate was incubated for 2 h at room temperature. The wells were then washed three times with IBB/0.5% BSA. Then, ^125ISIB-echistatin was diluted in sample buffer to fixed concentrations of 4, 4, 8, 8, and 20 nM for α5β1, αVβ1, αVβ3, αVβ5, and αVβ6 competition studies, respectively. The ^125ISIB-echistatin was mixed with sample buffer at a ratio of 1:1 (total binding = control well) or with increasing concentrations of ligands (Supplementary information SI1) [complete VTN, VTN(381–397 a.a.), VTN(365–381 a.a.)] at a ratio 1:1 and added to wells in duplicate. We used 1,4,7-triazacyclononane-1,4,7-triacetic acid (NOTA) as a negative control. […] After rinsing, bound radioactivity was quantified using a gamma counter. The percentage of relative binding of radiolabeled echistatin was calculated as follows: radioactivity in the test well*100/radioactivity in the reference well. […] For comparison of the potency of ligands in inhibiting bound ^125ISIB-echistatin for different integrin complexes, the half-maximal inhibitory concentration (IC50) was calculated. The IC50 value was determined by constructing a dose–response curve and examining the effect of different concentrations of ligands on ^125ISIB-echistatin binding. […]
# To determine if VTN(381–397 a.a.) could interact with integrins, we investigated its ability to compete with radiolabeled echistatin for binding to five different integrin complexes: α5β1, αVβ1, αVβ3, αVβ5 and αVβ6. […] First, the binding affinity of echistatin to the five integrins was measured by determining the equilibrium dissociation constant (KD). […] The fixed concentration of radiolabeled echistatin was determined according to its KD value. For each ligand concentration, the relative binding of ^125ISIB-echistatin to coated integrins was then measured, and values were plotted versus the logarithm of ligand concentration.
# [4] = target: T2, integrin αVβ3 (Homo sapiens, UniProt P05106+P06756); experiment: Competition study, 125ISIB-echistatin vs ligands on coated αVβ3; format: binding; settings: competition with 8 nM 125ISIB-echistatin, recombinant human αVβ3 coated at 1.8 µg/mL, IBB pH 7.4 / 0.5% BSA, 2 h room temperature, duplicate wells
# T2 construct: purchased R&D System; Minneapolis, MN, USA
# Description: as §3, with “µg/mL.” for “µg/mL. After the wells were washed with sample buffer (IBB, 0.5% BSA), blocking solution (IBB, 2% BSA) was added, and the microplate was incubated for 2 h at room temperature. The wells were then washed three times with IBB/0.5% BSA. Then, ^125ISIB-echistatin was diluted in sample buffer to fixed concentrations of 4, 4, 8, 8, and 20 nM for α5β1, αVβ1, αVβ3, αVβ5, and αVβ6 competition studies, respectively. The ^125ISIB-echistatin was mixed with sample buffer at a ratio of 1:1 (total binding = control well) or with increasing concentrations of ligands (Supplementary information SI1) [complete VTN, VTN(381–397 a.a.), VTN(365–381 a.a.)] at a ratio 1:1 and added to wells in duplicate. We used 1,4,7-triazacyclononane-1,4,7-triacetic acid (NOTA) as a negative control.”
# [5] = target: T3, integrin αVβ5 (Homo sapiens, UniProt P06756+P18084); experiment: Competition study, 125ISIB-echistatin vs ligands on coated αVβ5; format: binding; settings: competition with 8 nM 125ISIB-echistatin, recombinant human αVβ5 coated at 1.8 µg/mL, IBB pH 7.4 / 0.5% BSA, 2 h room temperature, duplicate wells
# T3 construct: purchased R&D System; Minneapolis, MN, USA
# Description: as §3, with “µg/mL.” for “µg/mL. After the wells were washed with sample buffer (IBB, 0.5% BSA), blocking solution (IBB, 2% BSA) was added, and the microplate was incubated for 2 h at room temperature. The wells were then washed three times with IBB/0.5% BSA. Then, ^125ISIB-echistatin was diluted in sample buffer to fixed concentrations of 4, 4, 8, 8, and 20 nM for α5β1, αVβ1, αVβ3, αVβ5, and αVβ6 competition studies, respectively. The ^125ISIB-echistatin was mixed with sample buffer at a ratio of 1:1 (total binding = control well) or with increasing concentrations of ligands (Supplementary information SI1) [complete VTN, VTN(381–397 a.a.), VTN(365–381 a.a.)] at a ratio 1:1 and added to wells in duplicate. We used 1,4,7-triazacyclononane-1,4,7-triacetic acid (NOTA) as a negative control.”
# T1 sequence (P06756 31-992 limits assumed): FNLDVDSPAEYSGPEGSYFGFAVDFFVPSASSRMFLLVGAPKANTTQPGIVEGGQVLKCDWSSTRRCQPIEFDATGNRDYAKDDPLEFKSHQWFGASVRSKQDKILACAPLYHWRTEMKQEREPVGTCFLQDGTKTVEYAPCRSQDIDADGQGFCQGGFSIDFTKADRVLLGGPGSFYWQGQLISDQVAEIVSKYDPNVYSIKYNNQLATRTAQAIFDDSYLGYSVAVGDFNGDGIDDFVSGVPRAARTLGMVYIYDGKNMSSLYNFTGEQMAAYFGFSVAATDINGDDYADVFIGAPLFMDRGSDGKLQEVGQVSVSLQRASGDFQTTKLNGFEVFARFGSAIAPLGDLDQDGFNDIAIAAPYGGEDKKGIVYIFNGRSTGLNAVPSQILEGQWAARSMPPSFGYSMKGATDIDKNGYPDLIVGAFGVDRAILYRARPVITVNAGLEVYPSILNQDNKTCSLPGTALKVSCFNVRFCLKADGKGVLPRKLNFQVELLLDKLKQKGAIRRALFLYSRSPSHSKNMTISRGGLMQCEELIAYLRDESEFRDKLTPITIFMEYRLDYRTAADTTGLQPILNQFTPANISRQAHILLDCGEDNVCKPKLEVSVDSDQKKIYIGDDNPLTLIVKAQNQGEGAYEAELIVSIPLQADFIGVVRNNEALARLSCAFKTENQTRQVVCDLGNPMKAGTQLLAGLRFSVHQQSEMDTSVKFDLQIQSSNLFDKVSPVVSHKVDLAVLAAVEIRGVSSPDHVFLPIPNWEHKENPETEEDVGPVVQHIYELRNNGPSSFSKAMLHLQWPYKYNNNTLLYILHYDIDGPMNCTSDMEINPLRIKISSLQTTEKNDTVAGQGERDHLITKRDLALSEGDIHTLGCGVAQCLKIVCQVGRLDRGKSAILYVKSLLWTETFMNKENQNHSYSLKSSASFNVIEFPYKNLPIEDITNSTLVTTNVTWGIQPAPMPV
# T1 sequence (P18564 22-707 limits assumed): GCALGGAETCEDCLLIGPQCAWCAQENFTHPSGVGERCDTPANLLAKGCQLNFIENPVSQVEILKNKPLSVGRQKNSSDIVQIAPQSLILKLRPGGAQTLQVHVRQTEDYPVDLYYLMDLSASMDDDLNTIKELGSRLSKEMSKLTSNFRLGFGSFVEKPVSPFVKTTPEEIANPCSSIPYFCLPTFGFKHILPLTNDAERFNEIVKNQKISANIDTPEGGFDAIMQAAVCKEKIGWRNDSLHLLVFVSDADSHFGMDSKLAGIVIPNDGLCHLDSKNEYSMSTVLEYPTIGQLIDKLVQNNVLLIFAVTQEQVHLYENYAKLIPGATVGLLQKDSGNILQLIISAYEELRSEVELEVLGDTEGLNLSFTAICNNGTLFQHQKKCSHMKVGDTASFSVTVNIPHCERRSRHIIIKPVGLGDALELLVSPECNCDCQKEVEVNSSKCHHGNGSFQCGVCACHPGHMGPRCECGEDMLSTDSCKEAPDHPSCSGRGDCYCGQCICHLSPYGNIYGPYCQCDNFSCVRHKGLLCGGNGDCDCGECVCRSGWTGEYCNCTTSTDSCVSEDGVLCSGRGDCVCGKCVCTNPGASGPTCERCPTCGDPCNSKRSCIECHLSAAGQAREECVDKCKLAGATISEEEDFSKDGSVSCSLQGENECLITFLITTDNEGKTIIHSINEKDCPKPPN
# T2 sequence (P06756 31-992 limits assumed): as the sequence (P06756 31-992 limits assumed) above
# T2 sequence (P05106 27-718 limits assumed): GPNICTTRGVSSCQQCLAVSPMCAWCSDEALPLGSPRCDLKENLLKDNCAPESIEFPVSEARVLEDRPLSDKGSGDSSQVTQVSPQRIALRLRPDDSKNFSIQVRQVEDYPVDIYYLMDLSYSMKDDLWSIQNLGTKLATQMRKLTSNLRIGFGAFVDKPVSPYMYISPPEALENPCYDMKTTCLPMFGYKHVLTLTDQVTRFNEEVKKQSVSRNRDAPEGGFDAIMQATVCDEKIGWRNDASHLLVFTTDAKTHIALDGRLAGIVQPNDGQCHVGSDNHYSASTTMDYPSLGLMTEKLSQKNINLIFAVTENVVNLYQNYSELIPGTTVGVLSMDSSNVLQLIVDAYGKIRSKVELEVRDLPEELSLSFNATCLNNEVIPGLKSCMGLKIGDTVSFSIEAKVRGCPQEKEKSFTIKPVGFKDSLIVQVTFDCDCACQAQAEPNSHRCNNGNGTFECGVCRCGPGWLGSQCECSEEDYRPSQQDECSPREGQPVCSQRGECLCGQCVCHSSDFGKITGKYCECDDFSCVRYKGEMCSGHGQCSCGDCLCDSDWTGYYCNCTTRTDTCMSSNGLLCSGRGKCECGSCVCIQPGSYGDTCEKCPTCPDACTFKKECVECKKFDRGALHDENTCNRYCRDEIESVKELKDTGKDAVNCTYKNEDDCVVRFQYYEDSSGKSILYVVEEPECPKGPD
# T3 sequence (P06756 31-992 limits assumed): as the sequence (P06756 31-992 limits assumed) above
# T3 sequence (P18084 24-719 limits assumed): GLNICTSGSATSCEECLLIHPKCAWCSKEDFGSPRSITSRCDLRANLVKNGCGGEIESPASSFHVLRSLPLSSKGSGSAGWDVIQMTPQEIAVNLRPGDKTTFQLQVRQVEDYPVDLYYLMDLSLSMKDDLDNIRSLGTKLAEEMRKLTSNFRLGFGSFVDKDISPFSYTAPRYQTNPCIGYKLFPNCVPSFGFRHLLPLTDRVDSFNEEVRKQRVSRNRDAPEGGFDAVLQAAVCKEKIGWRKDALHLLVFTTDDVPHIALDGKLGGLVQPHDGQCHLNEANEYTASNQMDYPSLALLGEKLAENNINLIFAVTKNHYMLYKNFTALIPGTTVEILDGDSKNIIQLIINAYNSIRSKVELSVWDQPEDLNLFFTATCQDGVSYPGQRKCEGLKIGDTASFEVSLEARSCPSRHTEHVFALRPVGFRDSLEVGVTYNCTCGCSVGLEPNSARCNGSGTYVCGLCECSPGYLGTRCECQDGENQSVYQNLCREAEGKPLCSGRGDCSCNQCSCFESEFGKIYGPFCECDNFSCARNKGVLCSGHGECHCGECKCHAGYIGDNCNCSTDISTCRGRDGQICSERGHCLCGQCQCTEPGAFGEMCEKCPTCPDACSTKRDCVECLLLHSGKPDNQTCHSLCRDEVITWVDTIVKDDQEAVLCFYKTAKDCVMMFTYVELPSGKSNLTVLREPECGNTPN
IC50 [3] [nM],IC50 [4] [nM],IC50 [5] [nM],Molecule,effect on αV subunit expression [1],effect on β6 subunit expression [2]
,,,C[C@@H]1C[C@H]2[C@@H]3CCC4=CC(=O)C=C[C@]4(C)[C@@]3(F)[C@@H](O)C[C@]2(C)[C@@]1(O)C(=O)CO [dexamethasone],none of these treatments influenced the expression levels of the αV and β6 integrin subunits,none of these treatments influenced the expression levels of the αV and β6 integrin subunits
250,1500,130,VTN: whole VTN protein,,
,,,TNF-α,none of these treatments influenced the expression levels of the αV and β6 integrin subunits,none of these treatments influenced the expression levels of the αV and β6 integrin subunits
,,,AGE-BSA: advanced glycation end product,none of these treatments influenced the expression levels of the αV and β6 integrin subunits,none of these treatments influenced the expression levels of the αV and β6 integrin subunits
,,,IL-6: proinflammatory cytokine,none of these treatments influenced the expression levels of the αV and β6 integrin subunits,none of these treatments influenced the expression levels of the αV and β6 integrin subunits
,,,IL-1β: proinflammatory cytokine,none of these treatments influenced the expression levels of the αV and β6 integrin subunits,none of these treatments influenced the expression levels of the αV and β6 integrin subunits
,,,CC1=CC(=O)c2ccccc2C1=O [menadione],none of these treatments influenced the expression levels of the αV and β6 integrin subunits,none of these treatments influenced the expression levels of the αV and β6 integrin subunits
,,,C[C@]12C=CC(=O)C=C1CC[C@@H]1[C@@H]2[C@@H](O)C[C@@]2(C)[C@H]1CC[C@]2(O)C(=O)CO [prednisolone],none of these treatments influenced the expression levels of the αV and β6 integrin subunits,none of these treatments influenced the expression levels of the αV and β6 integrin subunits
3200,,,SQRGHSRGRNQNSRRPS [VTN(381–397 a.a.)],,
,,,OO [H2O2],none of these treatments influenced the expression levels of the αV and β6 integrin subunits,none of these treatments influenced the expression levels of the αV and β6 integrin subunits
,,,B1,none of these treatments influenced the expression levels of the αV and β6 integrin subunits,none of these treatments influenced the expression levels of the αV and β6 integrin subunits
,,,B2,none of these treatments influenced the expression levels of the αV and β6 integrin subunits,none of these treatments influenced the expression levels of the αV and β6 integrin subunits
